The values that follow come from paper PMC9414507, “Drug Repurposing Based on Protozoan Proteome: In Vitro Evaluation of In Silico Screened Compounds against Toxoplasma gondii” (Pharmaceutics, 2022).

Where two headings read alike, the source gives them in different places.

For data set [1] the following is noted: ref Pandemic Response Box and COVID Box supporting information; cited from earlier work.
A short description of data set [2]: Cytotoxicity in mammalian cells (MTT assay). It is filed as cell-based. The note with it: human, read-out: CC50 (Half Cytotoxic Concentration against HFF cells). The method, then: HFF were seeded at 5 × 10^4 cells/well in 96-well microplates and incubated overnight to adhere to the plate. After that, the cells were incubated in the presence of increasing concentrations of the compounds for 72 h at 37 °C in a 5% CO2 humidified incubator. The viability of the cells was determined by the MTT assay as previously described. The medium in each well was replaced by PBS (100 µL/well), MTT (5 mg/mL) was added (20 µL/well), and the plate was incubated for 4 h at 37 °C. […] HFF incubated in D2 without drug treatment were used as viability control. Viability of 100% was expressed based on the optical density of untreated HFF cells, after normalization.

For `C=CCNc1nc(NCC=C)nc(N2CCN(C(c3ccc(F)cc3)c3ccc(F)cc3)CC2)n1` [Almitrine], the “Rule of Five” value in data set [1] was 3. Besides, in data set [2] (HFF cells), the CC50 at 72 h is over 20000 nM.
For the molecule `CC(C)C[C@H](NC(=O)[C@H](Cc1ccccc1)NC(=O)c1cnccn1)B(O)O` [Bortezomib], in data set [1], the “Rule of Five” value is 4. In addition, the CC50 at 72 h in data set [2] (HFF) was 79 nM.
Take `C[C@H]1O[C@@H](O[C@H]2[C@@H](O)C[C@H](O[C@H]3[C@@H](O)C[C@H](O[C@H]4CC[C@@]5(C)[C@H](CC[C@@H]6[C@@H]5CC[C@]5(C)[C@@H](C7=CC(=O)OC7)CC[C@]65O)C4)O[C@@H]3C)O[C@@H]2C)C[C@H](O)[C@@H]1O` [Digitoxin]: the “Rule of Five” value in data set [1] is 2.
Regarding `C[C@H]1O[C@@H](O[C@H]2[C@@H](O)C[C@H](O[C@H]3[C@@H](O)C[C@H](O[C@H]4CC[C@@]5(C)[C@H](CC[C@@H]6[C@@H]5C[C@@H](O)[C@]5(C)[C@@H](C7=CC(=O)OC7)CC[C@]65O)C4)O[C@@H]3C)O[C@@H]2C)C[C@H](O)[C@@H]1O` [Digoxin], the “Rule of Five” value in data set [1] is listed as 1.
As for `COc1cccc2c1C(=O)c1c(O)c3c(c(O)c1C2=O)C[C@@](O)(C(=O)CO)C[C@@H]3O[C@H]1C[C@H](N)[C@H](O)[C@H](C)O1` [Doxorubicin], in data set [1], the “Rule of Five” value is 1.
On to `Nc1nc(F)nc2c1ncn2[C@@H]1O[C@H](CO)[C@@H](O)[C@@H]1O` [Fludarabine], for which, in data set [1], the “Rule of Five” value is given as 4. The CC50 at 72 h in data set [2] (HFF) came out at 2140 nM.
As to `C[C@H]1COc2c(N3CCN(C)CC3)c(F)cc3c(=O)c(C(=O)O)cn1c23` [Levofloxacin], in data set [1], the “Rule of Five” value was 4.
With `COc1c(C)c2c(c(O)c1C/C=C(\C)CCC(=O)O)C(=O)OC2` [Mycophenolic acid], the “Rule of Five” value in data set [1] was 4.
As to `NC(=O)c1ncn([C@@H]2O[C@H](CO)[C@@H](O)[C@H]2O)n1` [Ribavirin], the “Rule of Five” value in data set [1] is recorded as 4.
For `COc1cc(Cc2cnc(N)nc2N)cc(OC)c1OC` [Trimethoprim], the “Rule of Five” value in data set [1] is on record as 4.
Turning to `CCCC(CCC)C(=O)O` [Valproic acid], in data set [1], the “Rule of Five” value was 4.
